Reference: paper PMC12376627 (2025)

Experiments:
[1] = system: Dopamine aptamer (DNA, aptamer) CGACGCCAGTTTGAAGGTTCGTTCGCAGGTGTGGAGTGACGTCG; assay: CNT FET sensor array; settings: PC12 culture medium; highest concentration tested 10 nM
[2] = system: Glutamate aptamer (DNA, aptamer) GCATCAGTCCACTCGTGAGGTCGACTGATGAGGCTCGAT; assay: SPR
[3] = system: Histamine aptamer (DNA, aptamer) AGCTCCAGAAGATAAATTACAGGGAACGTGTTGGTTGCGGTTCTTCCGATCTGCTGTGTTCTCTATCTGTGCCATGCAACTAGGATACTATGACCCCGG; assay: CNT FET sensor array; settings: PC12 culture medium; highest concentration tested 10 nM
[4] = system: Glutamate pH-sensitive aptamer (DNA, aptamer) GCATCAGTCCACTCGTGAGGTCGACTGATGAGGCTCGATTTTATCGATTTAGCTA; assay: CNT FET; settings: 10 nM target; released at acidic pH
[5] = system: Serotonin aptamer (DNA, aptamer) CGACTGGTAGGCAGATAGGGGAAGCTGATTCGATGCGTGGGTCG; assay: CNT FET sensor array; settings: PC12 culture medium; highest concentration tested 10 nM
[6] = system: Histamine pH-sensitive aptamer (DNA, aptamer) AGCTCCAGAAGATAAATTACAGGGAACGTGTTGGTTGCGGTTCTTCCGATCTGCTGTGTTCTCTATCTGTGCCATGCAACTAGGATACTATGACCCCGGTTTCCGGGGTTTTTGGGGCC; assay: CNT FET; settings: 10 nM target; released at acidic pH
[7] = system: Glutamate aptamer (DNA, aptamer) GCATCAGTCCACTCGTGAGGTCGACTGATGAGGCTCGAT; assay: CNT FET sensor array; settings: PC12 culture medium; highest concentration tested 10 nM
[8] = system: Histamine aptamer (DNA, aptamer) AGCTCCAGAAGATAAATTACAGGGAACGTGTTGGTTGCGGTTCTTCCGATCTGCTGTGTTCTCTATCTGTGCCATGCAACTAGGATACTATGACCCCGG; assay: SPR
[9] = system: Dopamine aptamer (DNA, aptamer) CGACGCCAGTTTGAAGGTTCGTTCGCAGGTGTGGAGTGACGTCG; assay: SPR
[10] = system: Dopamine pH-sensitive aptamer (DNA, aptamer) CGACGCCAGTTTGAAGGTTCGTTCGCAGGTGTGGAGTGACGTCGTTTCGACGCTTTAGCAGC; assay: CNT FET; settings: 0.1x PBS (1x: 137 mM NaCl, 2.7 mM KCl); pH 7.4; 10 nM dopamine; released at acidic pH
[11] = system: Serotonin pH-sensitive aptamer (DNA, aptamer) CGACTGGTAGGCAGATAGGGGAAGCTGATTCGATGCGTGGGTCGTTTCGACCTTTCCAGC; assay: CNT FET; settings: 10 nM target; released at acidic pH
[12] = system: Serotonin aptamer (DNA, aptamer) CGACTGGTAGGCAGATAGGGGAAGCTGATTCGATGCGTGGGTCG; assay: SPR

binding [1] | Kd [2] | binding [3] | binding [4] | binding [5] | binding [6] | binding [7] | Kd [8] | Kd [9] | binding [10] | binding [11] | Kd [12] | SMILES
no | 293 nM | no | yes | no | – | – | – | – | – | – | – | N[C@@H](CCC(=O)O)C(=O)O
no | – | – | – | no | yes | no | 15 nM | – | – | – | – | NCCc1c[nH]cn1
– | – | no | – | no | – | no | – | 20 nM | yes | – | – | NCCc1ccc(O)c(O)c1
no | – | no | – | – | – | no | – | – | – | yes | 10.5 nM | NCCc1c[nH]c2ccc(O)cc12
